Measured values taken from patent US20230133064A1, “T CELL MANUFACTURING PROCESS” (Adaptimmune Limited, priority 2020, published 2023).

Tests used:
Format in all cases: cell-based, human
[1] = tested on: T cells; assay: T cell expansion in G-Rex static culture, TNC counts at day 10 harvest (ViCELL)
Source text: (§1) All cells were expanded and transduced, using a static expansion system, (scalable G-Rex®). Cryopreserved leukapheresis starting materials from healthy donors or cancer patients were thawed, washed, activated with CD3/CD28 magnetic Dynabeads, and CD3+ positive fraction was magnetically separated. The starting leukapheresis material was similar across the healthy donors. CD3+ cells ranged from 44-64%, all with an increased purity of 79-87% following positive isolation using anti CD3/CD28 Dynabeads. CD3+ phenotyping identified a range of stem cell memory (SCM) markers (CCR7+/CD45RA+) ranging from 11.6-57% in the CD8+ compartment between individuals. Enriched CD3+ T cells were seeded based on total nucleated cell (TNC) counts at 1.5×10^6 TNC/cm^2 density in the G-Rex® static cell expansion system device, in 10% of final culture volume using TexMACS+5% human AB serum (HABS) supplemented with 100 IU/ml IL-2. Transduction with vector expressing a heterologous TCR (recognising MAGE-A4) was performed 18-26 hours post addition of CD3/CD28 Dynabeads to the cells, using lentivirus (LV) vector at a MOI of 0.45. Media was then added to top up to the final culture volume, this was performed 17-24 hours post transduction with TexMACS+5% HABS+500 IU/ml IL-2. Cells were then incubated at 37° C., 5% CO2 for a further 8 days. MK-2206 was added to the media at defined intervals; in day 0 seeding media and supplemented in media used for day 2 media addition, or solely supplemented in media for day 2 media addition. The concentration of the compound varied for each experiment, 10 uM, 7.5 uM, 5 uM, 2.5 uM, 2 uM, 1.5 uM, 1 uM, 0.5 uM, 0.25 uM, 0.1 uM, 0.05 uM as dictated in the following examples. T cells were harvested 10 days post seeding. After bead removal, T-cells were counted by automated cell analysis (with ViCELL). Harvested cells were then frozen for later phenotypic and functional analysis as described.
Healthy donor material (leukapheresis material comprising white blood cells separated from a donor sample of blood) was processed for culture in static expansion (G-Rex device) following the aforementioned process for a 10 day duration. The cells were cultured with MK-2206 (1.25, 2.5, 5.0, 10 uM) added to cultures on day 0+day 2 or day 2 alone (with the day 2 media addition). On harvest, Total Nucleated Cell (TNC) counts were performed using an automated cell counter (ViCELL) to provide expansion data, and flow cytometry performed to determine phenotype. The harvested cultures were frozen and later thawed for functional assessment, an antigen stimulated cytokine release assay (1.3 described above).
The concentration of MK-2206 was tested in further titratration from 0.05 to 10 uM to fully determine optimal dosing and day 0(+2) and day 2 alone are both assessed to determine the optimal time of addition. Again, expansion, phenotype and cytokine production data has been assessed. An additional four donors were tested at the varying concentrations, to provide a full titration range in this study, 10 uM to 0.05 uM. All donors were tested in 10 M G-Rex following the described process and were harvested on Day 10. Expansion data considered the timepoint of addition of MK-2206; Day 0+2 and Day 2 alone.

[2] = tested on: T cells; assay: Memory phenotype flow cytometry (CCR7/CD45RA) of transduced CD8+ T cells at day 10 harvest
Source text: as §1, with “[…]).” for “ViCELL).”, “described. Flow cytometry was performed on healthy donor material on day 10 harvest from the described process to determine Memory Phenotype markers of cultured cells using CCR7 and CD45RA staining” for “described.”

[3] = tested on: T-cells stimulated with MAGEA4-positive cell line A375; assay: Antigen-stimulated IFNγ release by ELISA, expanded T-cells co-cultured with A375 for 48 hours
Description: Function of expanded T-cells was evaluated based on the levels of cytokine release by expanded T-cells following antigen-stimulation with the MAGEA4-expressing cell line, A375. A375 MAGEA4 positive target cells were counted using automated cell counter and seeded in a 96 well U-bottom plate at 30,000 viable nucleated cells (VNC) per well, in 100 uL volume per well, one day prior to T-cell stimulation and incubated overnight at 37° C., 5% CO2. Wells that were used as “T cells alone” control, received 100 uL R10 media (RPMI medium with 10% FBS and 1% Penicillin/Streptomycin) only. Following overnight incubation of target cells, harvested and frozen T-cells were thawed at 37° C. in the water bath and washed with R10 media. Cells were rested in R10 media at a density of 2×10^6 VNC/mL for 2 hours at 37° C., 5% CO2. After 2-hour rest, T-cells were counted using automated cell counter, and cultures were normalised to 35% transduction efficiency for all donors combining calculated amount of transduced and non-transduced VNC for each condition. […] Colorimetric read-out was analysed (BMG LABTECH FLUOstar Omega plate reader) at OD 450. […] For the cytokine release assays, the target and effector cells were co-cultured for 48 hours then the supernatants were collected and analysed for IFN gamma levels by ELISA. […]

[4] = Day 0+2 addition, all concentrations 0.05-10 uM, across donors, FIG. 3A

NC1(c2ccc(-c3nc4ccn5c(=O)[nH]nc5c4cc3-c3ccccc3)cc2)CCC1 [MK-2206]
expansion (TNC counts) ([1]; 10 uM, all timepoints for addition, FIG. 2): reduced expansion | TNC yield ([1]; Day 0(+2) addition, FIG. 2): low yield | limit of expansion decrease (fold change to untreated control) [1, 4]: 0.15 fold | limit of expansion increase (fold change to untreated control) [1, 4]: 1.5 fold | impact on expansion ([1]; Day 2 addition, 0.05-10 uM, FIG. 3B): no negative impact on expansion | concentration providing peak expansion ([1]; Day 2 addition, 3 donors, FIG. 3B): 0.5 µM | expansion response relative to control ([1]; Day 2 addition, all conditions, FIG. 3B): 1-2 fold | T cell expansion ([1]; MK-2206 added on Day 2, after activation on day 0 and transduction on day 1): Improved T cell expansion | TNC yield ([1]; day 2 alone addition, with exception of 10 uM, FIG. 2): improved TNC yield | expansion (TNC counts) compared to the untreated control ([1]; healthy donor material, lower concentrations of MK-2206 (1.25-10 uM tested), day 10 harvest, FIG. 2): increased expansion | CCR7+CD45RA+ populations at harvest compared to the untreated control ([2]; added on day 0+2 and day 2 alone, CD3+/Dextramer+/CD8+ compartment, FIG. 4): increased | EMRA population versus untreated control ([2]; all concentrations tested): remains similar to the untreated control | CD62L expression ([2]; cells cultured with MK-2206): increase | CCR7−CD45RA− effector memory (EM) populations ([2]; cells cultured with MK-2206, FIG. 4): decrease | IFN gamma production following antigen stimulation versus untreated control ([3]; day 2 addition of MK-2206, FIG. 5): highest increase | IFN gamma production following antigen stimulation ([3]; increasing MK-2206 concentration, >5 uM, FIG. 5): decrease
